Series [1] in a line: Stability in methanolic solution (TLC analysis). It counts as physicochemical. Particulars: room temperature.
A further series has as its system glycosidases. Nature of the series: Enzymatic cleavage of the glycosidic bond by glycosidases (release of IPM). Type of series: biochemical. Particulars: glycosidases / enzyme mixtures, TLC, NBP detection. The method, then: On incubation of the glycosides in HEPES or water with corresponding glycosidases a rapid cleavage of the glycosidic bond could be observed.
(§1) Because each in 50 and 51 two glycosidic bonds are present, showing the same (51β) or a different configuration (f.i. 50α), along with single glucosidases enzyme mixtures were used to check the enzymatic release of IPM. The enzymatic cieavage of the pure anomeric conjugates 50 and 51 was monitored by TLC; intact conjugates or the cleavage products 28α, 28β or IPM were detected with NBP.

The nature of series [2]: Toxicity in BD6 rats with transplanted 1C32 tumor with autopsy. It counts as in vivo, rat. From the text: (§2) Autopsy of the animals after 28 days gave no findings. […] The result of autopsy (among others liver, kidneys, spleen, brain, bone marrow) on day 15 after the onset of treatment gave no finding.
The test system of a further series is bone-marrow. Nature of the series: Bone-marrow toxicity.
Series [3] in a line: Acute toxicity in male CD2 F1 mice with autopsy. It counts as in vivo, mouse. Particulars: 100 and 1000 mg/kg i.p.
Excerpt: as §2

The next series has as its system β-glucosidase. Nature of the series: Cleavage by a single enzyme, β-glucosidase (TLC). It counts as biochemical.
Excerpt: as §1

Series [4] relates to mammary tumor cell-line 1C39. Nature of the series: Cytotoxic activity in vitro, mammary tumor cell line 1C39. Type of series: cell-based, rat. From the text:
(§3) This was confirmed by measuring the biological efficiency, namely the cytotoxic activity in vitro by studies done on a murine retrothelial sarcoma, and on rat mammary tumor cell lines, and on Eb/Esb cell lines.

The subject of series [5] is mammary tumor cell-line 1C32. Nature of the series: Cytotoxic activity in vitro, mammary tumor cell line 1C32. Type of series: cell-based, rat.
Excerpt: as §3

Series [6] has as its system mammary tumor cell-line 1C29. Nature of the series: Cytotoxic activity in vitro, mammary tumor cell line 1C29. Type of series: cell-based, rat.
Excerpt: as §3

Series [7] has as its system retrothelial sarcoma cells.

Turning to `O=P(NCCCl)(NCCCl)OC1O[C@H](CO)[C@@H](O[C@@H]2O[C@H](CO)[C@H](O)[C@H](O)[C@H]2O)[C@H](O)[C@H]1O` (some centres unmarked) [Compound 50], the stability entry in series [1] was “stable”. For the same compound, the “cleavage required for the release of IPM” value in the series on glycosidases is reported as “cleavage of two different glycosidic bonds was required”. Consider `O=P(NCCCl)(NCCCl)OC1O[C@H](CO)[C@H](O)[C@H](O)[C@H]1O` (some centres unmarked) [Gal-IPM], for which the toxicity entry in series [2] (BD6 rats with transplanted 1C32 tumor, 5-122.5 and 5-245 mg/kg, resp.) is “did not show any toxicity”. Besides, in [2] (day 15 after onset of treatment, liver, kidneys, spleen, brain, bone marrow), the autopsy result is “no finding”. Consider `O=P(NCCCl)(NCCCl)OC1O[C@H](CO)[C@@H](O[C@@H]2O[C@H](CO)[C@@H](O)[C@H](O)[C@H]2O)[C@H](O)[C@H]1O` (some centres unmarked) [Compound 51], for which, in series [1], the stability entry was “stable”. Regarding `O=P(NCCCl)(NCCCl)O[C@@H]1O[C@H](CO)[C@@H](O)[C@H](O)[C@H]1O` [Compound 28β, β-D-Glucopyranosyl N,N'-di-(2-chloroethyl) phosphoric acid diamide], the bone-marrow toxicity result with bone-marrow was “very low”. Besides, the acute toxicity result in series [3] is recorded as “no acute toxicity could be observed”. The autopsy entry in [3] (after 28 days) is on record as “no findings”. For the compound `O=P(NCCCl)(NCCCl)O[C@@H]1O[C@H](CO)[C@@H](O[C@@H]2O[C@H](CO)[C@@H](O)[C@H](O)[C@H]2O)[C@H](O)[C@H]1O` [Compound 51β, 4-O-(β-D-Glucopyranosyl) β-D-glucopyranosyl N,N'-di-(2-chloroethyl) phosphoric acid diamide], the “complete cleavage by a single enzyme” value in the series on β-glucosidase was “could be completely cleaved by a single enzyme”.

In the case of `O=P(NCCCl)(NCCCl)O[C@H]1O[C@H](CO)[C@@H](O[C@@H]2O[C@H](CO)[C@@H](O)[C@H](O)[C@H]2O)[C@H](O)[C@H]1O` [Compound 51α, 4-O-(β-D-glucopyranosyl) α-D-glucopyranosyl N,N'-di-(2-chlorethyl) phosphoric acid diamide], the “cleavage required for the release of IPM” value in the series with glycosidases is recorded as “cleavage of two different glycosidic bonds was required”. Take `O=P(NCCCl)(NCCCl)O[C@@H]1O[C@H](CO)[C@H](O)[C@H](O)[C@H]1O` [Compound 29β, β-D-Galactopyranosyl N,N'-di-(2-chloroethyl) phosphoric acid diamide]: the “most effective agent (cytotoxic activity)” value in [4], in series [5] and in series [6] was “always the most effective agent” in each case. As to `O=P(O)(NCCCl)NCCCl` [IPM], in [7], the cytotoxicity entry is reported as “cytotoxicity”.

These data come from patent US5622936A (priority 1988, dated 1997).
